What all share (experiment): growth of human tumour cells (NCI), 48 h
In experiment [1] the test system is BT-549.
The subject of experiment [2] is SNB-19.
Experiment [3] relates to RPMI-8226.
The subject of experiment [4] is HOP-92.
The subject of experiment [5] is NCI-H23.
In experiment [6] the test system is SNB-75.
Experiment [7] concerns MDA-MB-231.
For experiment [8], the system named is UACC-62.
The subject of experiment [9] is MOLT-4.
Experiment [10] relates to OVCAR-8.
Experiment [11] deals with SW-620.
Experiment [12] concerns HCT-116.
Experiment [13] concerns NCI-H226.
The subject of experiment [14] is SK-MEL-5.
The subject of experiment [15] is K562.
Experiment [16] deals with DU-145.
Experiment [17] concerns COLO 205.
For experiment [18], the system named is LOX IMVI.
For experiment [19], the system named is HL-60.
Experiment [20] deals with OVCAR-3.

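Protocol summary: plate cells (96-well), add compound at 5 concentrations, incubate 48 h, interpolate endpoints linearly. At the GI50, growth is halved.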 Calls of active or inactive are those of the source. No stated cut-off is given here; in the data, active = GI50 up to about 1.1 µM and inactive = higher.

For the molecule `C/C(=N\NC(=[Se])N1CCN(c2ccccn2)CC1)c1ccccn1`, the GI50 in experiment [1] is 4.15 µM (inactive); in [2] it was 1.14 µM (inactive); in experiment [3], 0.036 µM (active); in [4], 0.508 µM (active); in experiment [5] it was 3.06 µM (inactive); in [6], 4.7 µM (inactive). For the same molecule, the GI50 was 0.01 µM (active) in [7]; 1.41 µM (inactive) in experiment [8]; 2.58 µM (inactive) in experiment [9]; 0.01 µM (active) in [10]; 0.01 µM (active) in experiment [11]; 0.01 µM (active) in [12]. The GI50 in [13] is 0.912 µM (active); in experiment [14], 0.0475 µM (active); in experiment [15], 0.0448 µM (active); in experiment [16], 5.14 µM (inactive); in experiment [17], 0.01 µM (active); in experiment [18], 0.0268 µM (active). Also, the values for the GI50 in experiment [19] and in experiment [20] were 0.0432 µM (active) and 0.01 µM (active), respectively.

With `Cc1ccc([N+](=O)[O-])cc1S(=O)(=O)Nc1ccc(C2=NOC(c3ccccc3O)C2)cc1` (stereo not given), the GI50 in experiment [1] is 6.27 µM (inactive); in [2], 3.31 µM (inactive); in experiment [3] it was 4.26 µM (inactive); in [4] it was 26.2 µM (inactive); in experiment [5] it was 10.4 µM (inactive); in experiment [6], 3.6 µM (inactive). For the same molecule, the GI50 in experiment [7] was 4.5 µM (inactive); in experiment [8], 2.97 µM (inactive); in [9] it was 2.76 µM (inactive); in [10], 31.2 µM (inactive); in experiment [11], 4.18 µM (inactive); in experiment [12], 4.54 µM (inactive). Moreover, the GI50 in experiment [13] is 5.82 µM (inactive); in experiment [14], 4.68 µM (inactive); in [15], 2.25 µM (inactive); in [16], 13.3 µM (inactive); in experiment [17] it was 3.54 µM (inactive); in experiment [18], 9.95 µM (inactive). The GI50 in experiment [19] was 2.17 µM (inactive); in experiment [20] it was 3.72 µM (inactive).

As for `C(=N\N=C1NCCCCN1)/c1ccc2ccccc2c1`, the GI50 is 37.2 µM (inactive) in [1]; 61.5 µM (inactive) in [2]; 27.5 µM (inactive) in [3]; 14.4 µM (inactive) in [4]; 76.7 µM (inactive) in experiment [5]; 13 µM (inactive) in [6]. For the same molecule, the GI50 in [7] is 31.4 µM (inactive); in experiment [8], 31 µM (inactive); in experiment [9], 23.5 µM (inactive); in [10], 43.7 µM (inactive); in [11] it was 22.7 µM (inactive); in experiment [12] it was 33.7 µM (inactive). For the same molecule, the GI50 in [13] was 24.7 µM (inactive); in [14] it was 17.4 µM (inactive); in [15], 20.9 µM (inactive); in experiment [16] it was 67.3 µM (inactive); in experiment [17], 15.9 µM (inactive); in [18], 15.7 µM (inactive). The GI50 is 23.3 µM (inactive) in [19] and 46.8 µM (inactive) in experiment [20].

As for `CCCCCCc1cc2cc(C(=O)Nc3cccc(C(F)(F)F)c3)c(=N)oc2cc1O`, the GI50 in experiment [1] is 1.66 µM (inactive); in experiment [2] it was 2.39 µM (inactive); in experiment [3], 0.524 µM (active); in [4], 0.348 µM (active); in [5], 0.185 µM (active); in experiment [6] it was 0.646 µM (active). Further, the GI50 in [7] was 2.31 µM (inactive); in [8], 1.53 µM (inactive); in [9] it was 0.586 µM (active); in [10], 1.26 µM (inactive); in experiment [11], 2.2 µM (inactive); in [12], 1.55 µM (inactive). The GI50 was 1.06 µM (active) in experiment [13]; 1.13 µM (inactive) in experiment [14]; 0.543 µM (active) in experiment [15]; 1.37 µM (inactive) in experiment [16]; 6.64 µM (inactive) in [17]; 1.26 µM (inactive) in [18]. For the same molecule, the GI50 in [19] is 1.44 µM (inactive); in [20], 2.07 µM (inactive).

On to `Cc1ccccc1OC(C)C(=O)NN1C(=O)CC(=O)NC1=S` (stereo not given), for which the GI50 in experiment [1], in [2], in [3], in experiment [4], in experiment [5] and in experiment [6] was > 100 µM (inactive) in each case. Moreover, the GI50 is > 100 µM (inactive) in experiment [7]; 80.5 µM (inactive) in experiment [8]; 94.8 µM (inactive) in [9]; > 100 µM (inactive) in experiment [10]; > 100 µM (inactive) in experiment [11]; > 100 µM (inactive) in experiment [12]. Also, the GI50 in experiment [13] is 70.5 µM (inactive); in experiment [14], > 100 µM (inactive); in [15], > 100 µM (inactive); in experiment [16], > 100 µM (inactive); in experiment [17], > 100 µM (inactive); in [18], > 100 µM (inactive). The GI50 in [19] and in [20] was > 100 µM (inactive) in each case.

Turning to `Cc1cc2cc3c(cc2c(-c2ccc([N+](=O)[O-])cc2)n1)OCO3`, the GI50 was 17.2 µM (inactive) in experiment [1]; 21.2 µM (inactive) in [2]; 35.8 µM (inactive) in experiment [3]; 3.77 µM (inactive) in [4]; 45 µM (inactive) in experiment [5]; 19.7 µM (inactive) in experiment [6]. The GI50 was 18.6 µM (inactive) in experiment [7]; 20.6 µM (inactive) in experiment [8]; 22.5 µM (inactive) in experiment [9]; 28.5 µM (inactive) in experiment [10]; 29.4 µM (inactive) in [11]; 36.8 µM (inactive) in experiment [12]. For the same molecule, the GI50 is 24.8 µM (inactive) in [13]; 17.4 µM (inactive) in experiment [14]; 60.8 µM (inactive) in experiment [15]; 62.8 µM (inactive) in experiment [16]; 37.7 µM (inactive) in experiment [17]; 41.2 µM (inactive) in [18]. Moreover, the GI50 was 57.5 µM (inactive) in experiment [19] and 55.2 µM (inactive) in experiment [20].

As to `CC1(C)CC(=O)C2=C(C1)OC1(CC2c2ccc(Cl)cc2)CC(c2ccc(Cl)cc2)C2=C(CC(C)(C)CC2=O)O1` (stereo not given), the GI50 in experiment [1] was 20.7 µM (inactive); in experiment [2], 18.8 µM (inactive); in [3], 9.46 µM (inactive); in experiment [4], 3.52 µM (inactive); in experiment [5], 16.3 µM (inactive); in [6] it was 17.5 µM (inactive). The GI50 in experiment [7] was 24.4 µM (inactive); in experiment [8] it was 23.6 µM (inactive); in [9], 3.13 µM (inactive); in experiment [10], 24.7 µM (inactive); in [11] it was 20.7 µM (inactive); in experiment [12] it was 12.2 µM (inactive). The GI50 was 22.4 µM (inactive) in [13]; 14.8 µM (inactive) in [14]; 8.18 µM (inactive) in [15]; 19.6 µM (inactive) in experiment [16]; 16 µM (inactive) in experiment [17]; 20.4 µM (inactive) in experiment [18]. The values for the GI50 in experiment [19] and in experiment [20] were 3.58 µM (inactive) and 3.44 µM (inactive), respectively.

On to `C[C@@H](CCO)OC1OC(COC(=O)C(C)(C)C)C(OC(=O)C(C)(C)C)C(OC(=O)C(C)(C)C)C1OC(=O)C(C)(C)C` (stereo not given in full), for which the GI50 in experiment [1] was 73.5 µM (inactive); in experiment [2], 12.6 µM (inactive); in [3], 15.5 µM (inactive); in experiment [4] it was 13.2 µM (inactive); in experiment [5], > 100 µM (inactive); in experiment [6], 32.1 µM (inactive). Also, the GI50 was 3.4 µM (inactive) in experiment [7]; 48 µM (inactive) in experiment [8]; 12.9 µM (inactive) in experiment [9]; 96.8 µM (inactive) in experiment [10]; 51.1 µM (inactive) in experiment [11]; 18 µM (inactive) in experiment [12]. The GI50 in experiment [13] was 20.9 µM (inactive); in [14], 4.97 µM (inactive); in experiment [15], 89.7 µM (inactive); in experiment [16], > 100 µM (inactive); in [17], > 100 µM (inactive); in experiment [18] it was 51.4 µM (inactive). For the same molecule, the GI50 in experiment [19] was 5.89 µM (inactive); in experiment [20] it was 86.7 µM (inactive).

With `CNC(=S)/C(C#N)=C(\N)N1CCN(C)CC1`, the GI50 in [1], in experiment [2], in experiment [3], in [4], in [5] and in [6] was > 100 µM (inactive) in each case. Also, the GI50 is 30.5 µM (inactive) in [7]; > 100 µM (inactive) in [8]; > 100 µM (inactive) in experiment [9]; > 100 µM (inactive) in experiment [10]; > 100 µM (inactive) in experiment [11]; > 100 µM (inactive) in experiment [12]. Besides, the GI50 in [13], in [14], in experiment [15], in experiment [16], in experiment [17] and in experiment [18] was > 100 µM (inactive) throughout. The GI50 in experiment [19] and in [20] was > 100 µM (inactive) each time.

As for `COc1cc2oc(-c3ccc(O)cc3)cc(=O)c2c(OC)c1OC`, the GI50 in [1] was > 100 µM (inactive); in experiment [2], > 100 µM (inactive); in [3], > 100 µM (inactive); in experiment [4], > 100 µM (inactive); in [5], > 100 µM (inactive); in [6], 18.4 µM (inactive). For the same molecule, the GI50 in experiment [7], in [8], in experiment [9], in experiment [10], in [11] and in experiment [12] was > 100 µM (inactive) in each case. The GI50 in [13], in experiment [14], in experiment [15], in experiment [16], in [17] and in [18] was > 100 µM (inactive) in each case. In addition, the GI50 in experiment [19] and in experiment [20] was > 100 µM (inactive) each time.

The values are drawn from ChEMBL document CHEMBL1201862, “PubChem BioAssay data set” (2004).
